{"source": "paper PMC5056396", "about": "“Hexokinase I N-terminal based peptide prevents the VDAC1-SOD1 G93A interaction and re-establishes ALS cell viability” (Scientific Reports, 2016)", "key": {"recombinant human VDAC1 [1]": {"test_system": "recombinant human VDAC1", "test": "Microscale Thermophoresis (MST) analysis of VDAC1-SOD1 interaction", "assay_type": "binding", "conditions": "100 nM labeled VDAC1, SOD1 1.22 nM to 20 μM", "description": "(§1) Intact isolated mitochondria from the motor neuron-like NSC34 cells were incubated with SOD1 WT or G93A, and mitochondrial membranes were precipitated by centrifugation. […] The affinity of SOD1 proteins for VDAC1 was then studied by using an in vitro binding assay. Purified and refolded VDAC1 was immobilized on Ni-NTA magnetic beads and incubated with SOD1 proteins. Then, VDAC1-binding complexes were isolated by the application of a magnetic field. […] The VDAC1-SOD1 interaction was quantitatively assayed by Microscale Thermophoresis (MST) analysis. MST measures any variation in the thermal migration of a fluorescently labeled binding partner; changes of fluorescence in a heated spot of the protein solution is a function of increasing interacting protein concentration, and can be exploited to calculate the binding affinity coefficient (Kd). The fluorescent-labeled VDAC1 was incubated with increasing concentrations of SOD1 proteins and the changes in fluorescence monitored. […] Depletion curve was used to calculate the Kd, which was estimated 4,81 μM.\nMicroscale Thermophoresis (MST) analysis was performed using the NanoTemper Monolith NT.115 apparatus (NanoTemper Technologies, Munich, Germany) as described. VDAC1 was fluorescently-labeled using the NanoTemper protein-labeling kit Green/Blue. […]"}, "recombinant human VDAC1 [2]": {"test_system": "recombinant human VDAC1", "test": "In vitro binding assay of SOD1 proteins to VDAC1 immobilized on Ni-NTA magnetic beads (western blot)", "conditions": "6.25 μM SOD1, 1 h RT, n = 3", "description": "as §1\nRecombinant VDAC1 was immobilized onto Ni-NTA Magnetic Agarose Beads (Qiagen) by exploiting its 6xHis-tag, according with manufacture’s protocol. […] Any protein in VDAC1-bound and -unbound fractions was evaluated by western blot. […]"}, "[3]": {"test_system": "human VDAC1 reconstituted into PLB", "test": "VDAC1 channel conductance in planar lipid bilayer (PLB)", "assay_type": "biochemical", "conditions": "for effect on single channel VDAC1 conductance: 1 M KCl, +25 mV, 0.2 μM SOD1 proteins or 15 μM peptide; for effect on voltage-dependence of VDAC1, triangular voltage ramps: symmetric 1 M KCl, ramps 0 to ±50 mV", "description": "Purified VDAC1 was reconstituted into a planar phospholipid bilayer (PLB) and its channel conductance was monitored before and after addition of SOD1 proteins, on cis or trans side of the membrane. […] Moreover, the effect of SOD1 proteins on the voltage-dependence of VDAC1 was monitored by triangular voltage ramps from 0 to ±50 mV. […] The current linearly follows the voltage applied up to about ±25 mV, where VDAC1 decreases its channel conductance through step-like transitions, remaining in low-conducting states.\nUnder standard experimental condition (1 M KCl and an applied potential of +25 mV) the VDAC1 channel was mainly in low-conducting closed states. […] The effect of NHK1 on the channel conductance is even more evident by plotting the amplitude values obtained in the current traces as a function of the number of events. While for VDAC1 alone the amplitude values appear as a main peak corresponding to the closed states (Fig. 4B), the presence of NHK1 caused a different distribution of events: an additional, different peak corresponding to the open state was visible, together with the closed states peak (Fig. 4C). […] The effect of NHK1 on the voltage-dependence of VDAC1 was monitored by triangular voltage ramps. […] In this experiment, indeed, VDAC1 completely loose, very precociously (already at ±15 mV applied), its ability to linearly respond to the applied voltage: a continuous switch from open to closed states was observed, especially at positive potentials. […] Upon NHK1 incubation, VDAC1 current transitions at positive voltages are very noisy and pass through different sub-conductance states (Fig. 4F).\nPurified VDAC1 was reconstituted into a Planar Lipid Bilayer (PLB) apparatus (Warner Instruments, Hamden, CT, USA), previously described. Bilayers were prepared using asolectin (Sigma) dissolved in decane (Sigma) containing 1% chloroform (Sigma) across a 200 μm hole in a derlin cuvette (Warner Instruments). Experiments were performed in 1 M KCl, 10 mM Hepes, pH 7.0[40][46]. Control experiments using empty membrane and/or detergents were performed to avoid activity in any of the above solutions. Data were acquired using a Bilayer Clamp amplifier (Warner Instruments) at 100 μs/point, filtered at 200 Hz and analyzed offline using Clampfit 10.4 program set (Axon Instruments, Union City, CA, USA). Single channel analysis of VDAC1 was performed in presence or not of 0.2 μM of SOD1 WT or G93A, 15 μM NHK1 or ScNHK1 peptide."}, "[4]": {"test_system": "intact mitochondria purified from NSC34 cells", "test": "Mitochondrial binding assay of SOD1 proteins (western blot)", "set-up": "species or system mouse", "conditions": "2 μg SOD1, 1 h RT, n = 3", "description": "Intact isolated mitochondria from the motor neuron-like NSC34 cells were incubated with SOD1 WT or G93A, and mitochondrial membranes were precipitated by centrifugation. […] The affinity of SOD1 proteins for VDAC1 was then studied by using an in vitro binding assay. Purified and refolded VDAC1 was immobilized on Ni-NTA magnetic beads and incubated with SOD1 proteins. Then, VDAC1-binding complexes were isolated by the application of a magnetic field. […] The VDAC1-SOD1 interaction was quantitatively assayed by Microscale Thermophoresis (MST) analysis. MST measures any variation in the thermal migration of a fluorescently labeled binding partner; changes of fluorescence in a heated spot of the protein solution is a function of increasing interacting protein concentration, and can be exploited to calculate the binding affinity coefficient (Kd). The fluorescent-labeled VDAC1 was incubated with increasing concentrations of SOD1 proteins and the changes in fluorescence monitored. […]\nIntact mitochondria were purified from NSC34 cells by Mitochondrial isolation kit (Miltenyi Biotech), according with manufacturer’s instructions. Isolated, intact mitochondria, in the storage buffer provided, were quantified by Lowry method. […] Proteins in mitochondrial or supernatant fraction were detected by western blot and quantified as explained in Supplementary Information. […]"}, "NSC34-SOD1G93A cells": {"test_system": "NSC34-SOD1G93A cells", "test": "Mitochondrial membrane potential (ΔΨm) by flow cytometry", "assay_type": "cell-based, mouse", "conditions": "NSC34-SOD1G93A expressing HK1; RH123; n = 3", "description": "To evaluate the NHK1 influence on mitochondrial functionality, mitochondrial membrane potential variation (ΔΨm) was assayed in the presence of NHK1 peptide or HK1. ΔΨm is related to the ATP production by oxidative phosphorylation; therefore, it is considered an indication of good mitochondrial and cellular health. Using mitochondria-targeted fluorescent probes, we estimated in flow cytometry the rate of mitochondrial depolarization. NSC34-SOD1G93A cells shown a high level of depolarized mitochondria compared to NSC34-SOD1WT. […] Similarly to NHK1 peptide, the expression of the whole HK1 reduced the depolarized mitochondria of about 15% (Fig. 7C).\nΔΨm was measured using tetramethyl-rhodamine methyl ester (TMRM) or Rhodamine 123 (RH123) (Molecular Probes) according to the excitation/emission wavelength of the transfection reporter or of the transfected fluorescent protein used. Both probes accumulates in active mitochondria due to their positive charge, whereby the reduction of ΔΨm leads to the release of fluorescent probes. Transfected NSC34-SOD1WT and NSC34-SOD1G93A cells were washed with PBS and incubated for 30 min at 37 °C with Krebs Ringer Buffered Saline supplemented with either 200 nM TMRM or 0.1 μg/mL RH123 and 20 μM Verapamil (as a multi drug-resistant pump inhibitor) (Sigma). Cells were then harvested and immediately analyzed by flow cytometry. Cells were excited by an air-cooled argon 488 nm laser, reading the GFP fluorescence of HK1-GFP or RH123 fluorescence in FL1 log mode; TMRM and mtDsRED used as transfection reporter of NHK1 peptide were read on FL3 log mode. Only viable cells detected by reading the scattering indicated as FSC and SSC, were considered for our analysis. The threshold physiological value of ΔΨm was estimated by using cells exposed to 1 μM of the uncoupling agent FCCP as a negative control. Data reported are representative for three sets of independent experiments, each performed at least in triplicate and based on 20.000 events for each group. Data were statistical analyzed by chi-square test. A p < 0,001 was taken as significant."}, "[5]": {"test_system": "VDAC1-SOD1 G93A interaction", "test": "In vitro VDAC1-SOD1 G93A binding assay after pre-incubation with HK1 or peptide (western blot, densitometry)", "set-up": "species or system human", "conditions": "200 μM HK1 pre-incubated 1 h, 6.25 μM SOD1 G93A; with respect to control; n = 3", "description": "It is well known that HKs bind to VDAC1 in physiological conditions. We hypothesized that the available area for interaction with soluble proteins is a limited, exposed portion of the transmembrane pore VDAC1. […] For this reason, we repeated the VDAC1-SOD1 G93A binding assay, adding increasing concentrations of HK1. […] The reduction corresponds to the increase of HK1 in VDAC1-bound fraction, and it is proportional to the HK1 concentrations added in the assay (Fig. 3A).\nIn order to evaluate the NHK1 ability to interfere with VDAC1-SOD1 G93A interaction, a binding assay was performed. Increasing concentrations of NHK1 were added to immobilized-VDAC1, before SOD1 G93A addition. […] In fact, a 20-fold smaller concentration of peptide was used to obtain a result similar to that obtained by using the whole HK1 in the previous experiment (see Fig. 3A).\nRecombinant VDAC1 was immobilized onto Ni-NTA Magnetic Agarose Beads (Qiagen) by exploiting its 6xHis-tag, according with manufacture’s protocol. For each experiment, a large excess of VDAC1 (30 μM) were incubated with 50 μL of beads suspension in Interaction Buffer (IB) (300 mM NaCl, 50 mM NaH2PO4, 20 mM imidazole, pH 8.0) to saturate all sites. Beads were collected using the magnet-based system DynaMag-2 (Life Technologies) and washed twice in Wash Buffer (300 mM NaCl, 50 mM NaH2PO4, 20 mM imidazole, 0.05% Tween-20, pH 6.3) to remove any excess of VDAC1. Beads-immobilized VDAC1 were incubated with 6.25 μM SOD1 WT or G93A, for 1 h at RT, under constant shaking, in 100 μL of IB. The assay was also performed by pre-incubating immobilized-VDAC1 for an extra 1 h with increasing concentration of purified human HK1 (0, 100, 200 μM) or NHK1 peptide (0, 5, 10, 25 μM), before SOD1 G93A addition. Beads were recovered using Dyna-Mag2 system and VDAC1-complexes were eluted from beads using 50 μL of Elution Buffer (300 mM NaCl, 50 mM NaH2PO4, 300 mM imidazole, pH 3.5). Any protein in VDAC1-bound and -unbound fractions was evaluated by western blot. Three independent experiments were performed for each condition tested."}}, "data": [{"molecule": "SOD1 WT: Strep-tagged recombinant human SOD1 wild type expressed in E. coli", "values": [{"measurement": "change of fluorescence of labeled VDAC1 with increasing SOD1 concentration", "setting": "recombinant human VDAC1 [1]", "value": "no fluorescence change"}, {"measurement": "distribution between VDAC1-bound and -unbound fraction", "setting": "recombinant human VDAC1 [2]", "value": "almost exclusively in the unbound fraction"}, {"measurement": "effect on single channel VDAC1 conductance", "setting": "[3]", "value": "did not modify the VDAC1 closed state"}, {"measurement": "effect on voltage-dependence of VDAC1, triangular voltage ramps", "setting": "[3]", "value": "no modification in the usual VDAC1 pattern"}, {"measurement": "distribution between mitochondrial pellet and supernatant", "setting": "[4]", "value": "found exclusively in the supernatant"}]}, {"molecule": "SOD1 G93A: Strep-tagged recombinant human ALS-linked SOD1 G93A mutant expressed in E. coli", "values": [{"measurement": "change of fluorescence of labeled VDAC1 with increasing SOD1 concentration", "setting": "recombinant human VDAC1 [1]", "value": "produced fluorescence decrease"}, {"measurement": "distribution between VDAC1-bound and -unbound fraction", "setting": "recombinant human VDAC1 [2]", "value": "distributed between VDAC1-bound and -unbound fraction"}, {"measurement": "effect on single channel VDAC1 conductance", "setting": "[3]", "value": "promoted VDAC1 channel instability"}, {"measurement": "effect on voltage-dependence of VDAC1, triangular voltage ramps", "setting": "[3]", "value": "perturbation of voltage-dependence"}, {"measurement": "distribution between mitochondrial pellet and supernatant", "setting": "[4]", "value": "co-precipitated in the mitochondrial pellet"}]}, {"molecule": "HK1: recombinant human HK1 purchased by Sigma; in cells expressed from plasmid (protein) MIAAQLLAYYFTELKDDQVKKIDKYLYAMRLSDETLIDIMTRFRKEMKNGLSRDFNPTATVKMLPTFVRSIPDGSEKGDFIALDLGGSSFRILRVQVNHEKNQNVHMESEVYDTPENIVHGSGSQLFDHVAECLGDFMEKRKIKDKKLPVGFTFSFPCQQSKIDEAILITWTKRFKASGVEGADVVKLLNKAIKKRGDYDANIVAVVNDTVGTMMTCGYDDQHCEVGLIIGTGTNACYMEELRHIDLVEGDEGRMCINTEWGAFGDDGSLEDIRTEFDREIDRGSLNPGKQLFEKMVSGMYLGELVRLILVKMAKEGLLFEGRITPELLTRGKFNTSDVSAIEKNKEGLHNAKEILTRLGVEPSDDDCVSVQHVCTIVSFRSANLVAATLGAILNRLRDNKGTPRLRTTVGVDGSLYKTHPQYSRRFHKTLRRLVPDSDVRFLLSESGSGKGAAMVTAVAYRLAEQHRQIEETLAHFHLTKDMLLEVKKRMRAEMELGLRKQTHNNAVVKMLPSFVRRTPDGTENGDFLALDLGGTNFRVLLVKIRSGKKRTVEMHNKIYAIPIEIMQGTGEELFDHIVSCISDFLDYMGIKGPRMPLGFTFSFPCQQTSLDAGILITWTKGFKATDCVGHDVVTLLRDAIKRREEFDLDVVAVVNDTVGTMMTCAYEEPTCEVGLIVGTGSNACYMEEMKNVEMVEGDQGQMCINMEWGAFGDNGCLDDIRTHYDRLVDEYSLNAGKQRYEKMISGMYLGEIVRNILIDFTKKGFLFRGQISETLKTRGIFETKFLSQIESDRLALLQVRAILQQLGLNSTCDDSILVKTVCGVVSRRAAQLCGAGMAAVVDKIRENRGLDRLNVTVGVDGTLYKLHPHFSRIMHQTVKELSPKCNVSFLLSEDGSGKGAALITAVGVRLRTEASS", "values": [{"measurement": "reduction of depolarized mitochondria", "setting": "NSC34-SOD1G93A cells", "value": "about 15%"}, {"measurement": "decrease of SOD1 G93A bound to immobilized VDAC1", "setting": "[5]", "value": "about 40%"}]}]}
